# Reference: patent publication US20090247495A1, “CU[…] AND USES THEREOF” (priority 2007, published 2009)
# “Also recorded” adds a separate entry of the source.
# Experiments:
# [1] = test system: Stat3; test: Western blot of Stat3 activation in K562 cells; assay type: cell-based, human; settings: 50 μM
# Protocol: K562 leukemia cells were serum starved for 18 hours prior to cucurbitacin B treatment. The cells were incubated at a 75-mm culture flask filled with 10 ml growth medium (RPMI with 10% FBS and 1% PS) at the cell density of 1×10^5 cells/ml in the presence or absence of cucurbitacin B for various time intervals. The drug treatment were terminated by centrifugation at 1500 rpm for 5 minutes and the cells were rinsed twice with phosphate-buffered saline and lysed at 4° C. in a lysis buffer containing 50 mM Tris-HCl, pH7.5, […], 5 mM EDTA, 40 mM NaP2O7, 1% Triton X-100, 1 mM dithiothreitol, 200 μM Na3VO4, 100 μM phenylmethysufonyl fluoride, 2 μg/ml leupeptin, 4 μg/ml aprotinin and 0.7 μg/ml pepstatin. The insoluble protein lysate were removed by centrifugation for 10 minutes at 13000 rpm. Fifteen micrograms of protein lysate was resolved using SDS-polyacryamide gel electrophoresis (PAGE) (usually 8%-12% polyacrylamide gel) and then subjected to western blot anaylsis. Western blots were performed with antibodies specific for phosphorylated and total Stat3, c-Raf, Mek, and Erk. The blots were developed with the Enhanced Chemiluminescence Plus (ECL Plus) detection system (Amersham). • 6.1.7 GTPase Pull-Down Assay
# 15 μg cell lysate of each sample was separated in 8% SDS-PAGE followed by immuno-blotting with anti-Stat3 antibodies to detect the phosphorylated form of Stat3 as well as its total expression level.
# Cells were serum starved for 18 hours followed by treated with 50 μM cucurbitacin B for 10 minutes, 30 minutes, 1 hour and 4 hours, respectively. 15 μg cell lysate of each sample was separated in 8% SDS-PAGE followed by immuno-blotting with anti-Stat3 antibodies to detect the phosphorylated form of Stat3 as well as its total expression level.
# [2] = test system: K562; test: Cell proliferation assay using SRB, K562; assay type: cell-based; settings: Homo sapiens, 48 hours treatment
# Protocol: (§1) Human leukemia cell lines CCRF-CEM, K562, MOLT-4, RPMI-8226 and SR, purchased from the National Cancer Institute (NCI), were cultured in RPMI 1640 medium supplemented with 5%(v/v) fetal Bovine […] and 100 units/ml penicillin and 100 units/ml streptomycin in a humidified 5% CO2 atmosphere at 37° C. • 6.1.2 Reagents and Antibodies
# (§2) All 5 human leukemia cells were screened by the cell proliferation assay using SRB to quantitative cell protein mass following cucurbitacin B treatment. The experiments were repeated in triplicate. Appropriate number of cells (depends on the doubling time of cells) were seeded into a 96-well tissue culture plate and growth in the indicated medium in presence of different dosages of cucurbitacin B for 2 days. Afterwards 25 μl 80%TCA reagent was added into each well to fix the cells and the plates were incubated at 4° C. at least for 1 hour. Then the plates were washed with tap water and air dried. […] The plates were air dried and dissolved by 100 μl 1 OmMTrizma-base solution and the absorbance was measured at 515 nm using FLUOstar OPTIMA equipment. • 6.1.4 Flow Cytometry for Apoptosis Analysis
# (§3) Appropriate number of cell density were seeded into a 96 well culture plate and treated with different doses of cucurbitacin B for 2 days. The growth inhibition effects of cucurbitacin B on the cells were detected using SRB.
# [3] = test system: Human GBM cell lines U87, T98G, U118, U343, U373; test: MTT cell cytotoxicity assay, glioblastoma multiforme cell lines; assay type: cell-based; settings: 48 hours, range over the cell lines
# Protocol: Human GBM cell lines U87, T98G, U118, U343, U373 cell lines were maintained in Dulbecco's modified Eagle's medium (Gibco, BRL) with 10% fetal calf serum (Gemini Bio-Products, Calabasas, Calif., USA), 10 U/ml penicillin G and […] streptomycin. They were all incubated at 37° C. in 5% CO2 atmosphere.
# The cytotoxic effect of CuB on these cancer cell lines were determined using MTT (3-[4,5-dimethylthiazol-2-yl]-2,5-diphenyl tetrazolium bromide) labeled cell cytotoxicity assay. A total of 1×10^4 cells were seeded into a 96-well plate for 24 hours prior to cucurbitacin B (CuB) treatment. They were then treated with different dosages of CuB for 48 hours. After the treatment, 20 μl of MTT (5 mg/ml) was added to each well and incubated for 4 hrs. Then the medium was discarded and 100 μl of dimethyl sulfoxide was added. The absorbance at 570 nm was then measured by a microplate reader and the 50% inhibition concentration (IC50) were obtained. Results for untreated control cells were set as 100%, with remaining data shown as a percentage of control. Data represented the mean±standard error of triplicate samples.
# [4] = test system: Human leukemia cell lines CCRF-CEM, K562, MOLT-4, RPMI-8226 and SR; test: Cell proliferation assay using SRB, 5 human leukemia cell lines; assay type: cell-based; settings: 48 hours treatment, range over all leukemia cell lines
# Protocol: as §1, §2, §3
smiles,measurement,setting,value
CC(=O)OC(C)(C)/C=C/C(=O)[C@](C)(O)C1[C@H](O)C[C@@]2(C)C3CC=C4C(C[C@H](O)C(=O)C4(C)C)[C@]3(C)C(=O)C[C@]12C (stereo partly drawn) [cucurbitacin B],inhibition on Stat3 activation,[1]; 10 minutes to 30 minutes,No significant change
same,inhibition effect on Stat3 activation,[1]; 1 hour to 4 hours,gradually increased at 1 hours and peak at 4 hours; also recorded: inhibited Stat3 phosphorylation
same,Stat3 activation (phosphorylated Stat3),[1]; 4 hours,significant inhibited
same,GI50,[2],15.6 nM
same,GI50,[3],50 to 100 nM
same,GI50,[4],15.6 to 35.3 nM
